Literature values in PMC8617681 (Pharmaceuticals, 2021).

System: RET fusion-positive cancers
Details: clinical phase 1 study; cited from earlier work

COc1ccc(CN2C3CC2CN(c2ccc(-c4cc(OCC(C)(C)O)cn5ncc(C#N)c45)cn2)C3)cn1 [selpercatinib]
overall response rate: 77%
